What was measured:
[1] = tested on: climacteric produce; assay: Controlled ripening of climacteric produce; format: in vivo
Source text: Avacados and grocery bananas (pretreated at warehouse or retail facility) were acquired directly from local supermarket, and ‘non-gassed’ bananas were directly purchased from local produce distribution center (Coastal Sunbelt, Jessup, Md.).

[2] = tested on: avocados; details: after 48 hours of treatment
Protocol: (§1) Each measurement was repeated at least three times. […] Five replicates were measured for each measurement.
(§2) Tensile Property. […] At least five replicates were measured for each treatment.

[3] = tested on: avocados; assay: Color change of avocados after ethylene mediated ripening treatment (colorimeter); format: in vivo, avocado
Protocol: (§3) The color change of the produce was measured using a Minolta colorimeter (Minolta Co. Ltd, Japan). The L values reported were means of 12 readings; three readings from each side of each of the bananas, and two readings per avocado. For bananas, ‘a’ was an indicator of green, and higher ‘a’ value meant less green; ‘b’ was an indicator of yellow, and higher ‘b’ value meant more yellow. For avocados, the degree of browning was expressed by the percent decrease in the L value calculated by subtracting the L value of treated and control samples measured at evaluation times from the time zero L value obtained from untreated samples measured immediately after cutting, divided by the time zero value and multiplied by 100.

[4] = tested on: bananas; assay: Texture (tensile property, firmness) of bananas after ripening treatment; format: in vivo, banana
Protocol: as §1, §2

[5] = tested on: bananas; assay: Color change of bananas after ethylene mediated ripening treatment (colorimeter); format: in vivo; details: banana surface color after ripening treatment (48 hours)
Protocol: as §3

[6] = avocado surface color after ripening treatment (48 hours)

## C=C [ethylene]
[1]; after 48 hours of treatment
  ripening state of samples: fully ripened
[1]; versus no ethylene treatment
  total ripening time required: reduced by a half
[2]
  avocado flesh texture: softened significantly
[3]; after treatment, in words
  skin color of avocado: darkened slightly
[3]; [6]
  L: 30.17 ± 0.23
  a: −1.31 ± 3.01
  b: 13.54 ± 1.66
  c: 13.60 ± 3.44
  h: 95.53 ± 0.29
[4]
  Young's modulus (initial slope): change of elasticity of bananas: less elastic and more viscous
[5]
  L: 66.74 ± 0.77
  c: 45.80 ± 4.64
  h: 92.08 ± 0.83
[5]; higher a = less green
  a: −1.66 ± 0.57
[5]; higher b = more yellow
  b: 45.77 ± 4.60

— patent US20170079296A1, “Methods For Treating Plants Or Fruits” (The United States of America, as represented by the …, priority 2015, published 2017)
